Data taken from US10266548B2, “Substituted benzylindazoles for use as Bub1 kinase inhibitors in the treatment of hyperproliferative diseases” (Bayer Intellectual Property GmbH, priority 2011, dated 2019).
Counter-ions that a name gives are not always drawn.

Target: catalytic domain of human Bub1 (amino acids 704-1085) (Homo sapiens (Human), UniProt O43683)
Assay: Bub1 kinase assay (TR-FRET)
Assay type: biochemical
Details: 10 μM ATP, 1 μM peptide substrate; read-out: Biological Assay 1: Bub1 kinase assay median IC50
Procedure: To this end, 100-fold concentrated compound solutions (in DMSO) were previously prepared by serial dilution (1:3.4) of 2 mM stocks in a clear low volume 384-well source microtiter plate (Greiner Bio-One, Frickenhausen, Germany), from which 50 nl of compounds were transferred into a black low volume test microtiter plate from the same supplier. […] The resulting mixture (5 μl final volume) was incubated at 22° C. during 60 min., and the reaction was stopped by the addition of 5 μl of an aqueous EDTA-solution (50 mM EDTA, in 100 mM HEPES pH 7.5 and 0.2% (w/v) bovine serum albumin) which also contained the TR-FRET detection reagents (0.2 μM streptavidin-XL665 [Cisbio Bioassays, Codolet, France] and 1 nM anti-phosho-Serine antibody [Merck Millipore, cat. #35-001] and 0.4 nM LANCE EU-W1024 labeled anti-mouse IgG antibody [Perkin-Elmer, product no. AD0077, alternatively a Terbium-cryptate-labeled anti-mouse IgG antibody from Cisbio Bioassays can be used]). The stopped reaction mixture was further incubated 1 h at 22° C. in order to allow the formation of complexes between peptides and detection reagents. Subsequently, the amount of product was evaluated by measurement of the resonance energy transfer from the Eu-chelate-antlbody complex recognizing the Phosphoserlne residue to the streptavidin-XL665 bound to the biotin moiety of the peptide. […] IC50 values were calculated by fitting the normalized inhibition data to a 4-parameter logistic equation (Minimum, Maximum, IC50, Hill; Y=Max+(Min−Max)/(1+(X/IC50)Hill)) using a Bayer-proprietary analysis software.

Sequence of catalytic domain of human Bub1 (amino acids 704-1085) (O43683 704-1085): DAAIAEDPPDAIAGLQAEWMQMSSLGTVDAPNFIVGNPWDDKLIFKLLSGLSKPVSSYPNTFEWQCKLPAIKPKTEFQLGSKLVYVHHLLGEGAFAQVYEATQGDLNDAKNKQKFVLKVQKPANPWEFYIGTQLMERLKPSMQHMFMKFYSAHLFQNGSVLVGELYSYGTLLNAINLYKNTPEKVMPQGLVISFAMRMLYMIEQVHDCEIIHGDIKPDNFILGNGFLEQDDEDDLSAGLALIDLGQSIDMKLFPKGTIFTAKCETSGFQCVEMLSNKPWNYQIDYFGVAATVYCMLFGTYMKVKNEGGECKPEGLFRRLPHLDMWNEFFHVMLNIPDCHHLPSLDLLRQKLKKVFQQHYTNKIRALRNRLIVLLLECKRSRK

| SMILES | IC50 [nM] |
| --- | --- |
| COc1cnc(-c2nn(Cc3c(F)cc(OC(F)F)cc3F)c3ccccc23)nc1N(Cc1c(F)cc(OC(F)F)cc1F)c1ccncc1 [Example 2-39-2, N-[4-(difluoromethoxy)-2,6-difluorobenzyl]-2-{1-[4-(difluoromethoxy)-2,6-difluorobenzyl]-1H-indazol-3-yl}-5-methoxy-N-(pyridin-4-yl)pyrimidin-4-amine] | 6900 |
| CCOc1cc(F)c(CN(c2ccncc2)c2nc(-c3nn(Cc4c(F)cc(OCC)cc4F)c4ccccc34)ncc2OC)c(F)c1 [Example 2-5-2, N-(4-ethoxy-2,6-difluorobenzyl)-2-[1-(4-ethoxy-2,6-difluorobenzyl)-1H-indazol-3-yl]-5-methoxy-N-(pyridin-4-yl)pyrimidin-4-amine] | 9300 |
| COc1cnc(-c2nn(Cc3cccc(C#N)c3)c3ccccc23)nc1Nc1ccncc1 [Example 2-45-1, 3-({3-[5-methoxy-4-(pyridin-4-ylamino)pyrimidin-2-yl]-1H-indazol-1-yl}methyl)benzonitrile] | 110 |
| COc1cnc(-c2nn(Cc3c(Cl)ccc([N+](=O)[O-])c3Cl)c3ccccc23)nc1Nc1ccncc1 [Example 2-44-1, 2-[1-(2,6-dichloro-3-nitrobenzyl)-1H-indazol-3-yl]-5-methoxy-N-(pyridin-4-yl)pyrimidin-4-amine] | 41 |
| CC(C)(C)OC(=O)NCCOCCOc1cnc(-c2nn(Cc3ccccc3F)c3ccccc23)nc1Nc1ccncc1 [Example 4-20, tert-butyl {2-[2-({2-[1-(2-fluorobenzyl)-1H-indazol-3-yl]-4-(pyridin-4-ylamino)pyrimidin-5-yl}oxy)ethoxy]ethyl}carbamate] | 210 |
| COc1cnc(-c2nn(Cc3ccc(C)c(F)c3F)c3ccccc23)nc1N(Cc1ccc(C)c(F)c1F)c1ccncc1 [Example 2-8-2, N-(2,3-difluoro-4-methylbenzyl)-2-[1-(2,3-difluoro-4-methylbenzyl)-1H-indazol-3-yl]-5-methoxy-N-(pyridin-4-yl)pyrimidin-4-amine] | 290 |
| N#Cc1cnc(-c2nn(Cc3ccccc3F)c3ccccc23)nc1Nc1ccncc1 [Example 31-1, 2-[1-(2-fluorobenzyl)-1H-indazol-3-yl]-4-(pyridin-4-ylamino)pyrimidine-5-carbonitrile] | 4700 |
| COc1cnc(-c2nn(Cc3ccccc3Cl)c3ccccc23)nc1N(Cc1ccccc1Cl)c1ccncc1 [Example 2-10-2, N-(2-chlorobenzyl)-2-[1-(2-chlorobenzyl)-1H-indazol-3-yl]-5-methoxy-N-(pyridin-4-yl)pyrimidin-4-amine] | 1200 |
| COc1cnc(-c2nn(Cc3ccc(C(=O)O)cc3Cl)c3ccccc23)nc1Nc1ccncc1 [Example 28-1, 3-chloro-4-({3-[5-methoxy-4-(pyridin-4-ylamino)pyrimidin-2-yl]-1H-indazol-1-yl}methyl)benzoic acid] | 3700 |
| COc1cnc(-c2nn(Cc3ccc(SC(F)(F)F)cc3)c3ccccc23)nc1Nc1ccncc1 [Example 2-9-3, 5-methoxy-N-(pyridin-4-yl)-2-(1-{4-[(trifluoromethyl)sulfanyl]benzyl}-1H-indazol-3-yl)pyrimidin-4-amine] | 20000 |
| COc1cnc(-c2nn(Cc3ccc(C(C)(C)O)cc3Cl)c3ccccc23)nc1Nc1ccncc1 [Example 9-1, 2-[3-chloro-4-({3-[5-methoxy-4-(pyridin-4-ylamino)pyrimidin-2-yl]-1H-indazol-1-yl}methyl)phenyl]propan-2-ol] | 9.8 |
| OCC1(COc2cnc(-c3nn(Cc4ccccc4F)c4ccccc34)nc2N(CC2(CO)COC2)c2ccncc2)COC1 [Example 4-2-2, (3-{[(2-[1-(2-fluorobenzyl)-1H-indazol-3-yl]-5-{[3-(hydroxymethyl)oxetan-3-yl]methoxy}pyrimidin-4-yl)(pyridin-4-yl)amino]methyl}oxetan-3-yl)methanol] | 430 |
| CCOc1cc(F)c(Cn2nc(-c3ncc(OC[C@@H]4CCC(=O)N4)c(Nc4ccncc4)n3)c3ccccc32)c(F)c1 [Example 4-18, formic acid - (5S)-5-[({2-[1-(4-ethoxy-2,6-difluorobenzyl)-1H-indazol-3-yl]-4-(pyridin-4-ylamino)pyrimidin-5-yl}oxy)methyl] pyrrolidin-2-one (1:1)] | 12 |
| CCOc1cc(O)c(Cn2nc(-c3ncc(OC)c(Nc4cc(C)nc(C)c4)n3)c3ccccc32)c(F)c1 [Example 24-6, 2-[(3-[4-[(2,6-dimethylpyridin-4-yl)amino]-5-methoxypyrimidin-2-yl}-1H-indazol-1-yl)methyl]-5-ethoxy-3-fluorophenol] | 940 |
| N#Cc1cnccc1Nc1nc(-c2nn(Cc3ccccc3F)c3ccccc23)ncc1Oc1ccncc1C#N [Example 26-2] | 2400 |
| Fc1ccccc1Cn1nc(-c2ncc(OCCc3nnn[nH]3)c(N(CCc3nnn[nH]3)c3ccncc3)n2)c2ccccc21 [Example 4-5-2, 2-[1-(2-fluorobenzyl)-1H-indazol-3-yl]-N-(pyridin-4-yl)-5-[2-(1H-tetrazol-5-yl)ethoxy]-N-[2-(1H-tetrazol-5-yl)ethyl]pyrimidin-4-amine] | 330 |
| COc1cnc(-c2nn(Cc3c(F)cccc3OC)c3ccccc23)nc1Nc1ccncc1 [Example 2-49-1, 2-[1-(2-fluoro-6-methoxybenzyl)-1H-indazol-3-yl]-5-methoxy-N-(pyridin-4-yl)pyrimidin-4-amine] | 1500 |
| COc1cnc(-c2nn(Cc3cccc(-n4cccc4)c3)c3ccccc23)nc1Nc1ccncc1 [Example 2-1-3, 5-methoxy-N-(pyridin-4-yl)-2-{1-[3-(1H-pyrrol-1-yl)benzyl]-1H-indazol-3-yl}pyrimidin-4-amine] | 120 |
| COc1cnc(-c2nn(Cc3c(F)cccc3F)c3ccccc23)nc1N(Cc1c(F)cccc1F)c1ccncc1 [Example 2-7-2, N-(2,6-difluorobenzyl)-2-[1-(2,6-difluorobenzyl)-1H-indazol-3-yl]-5-methoxy-N-(pyridin-4-yl)pyrimidin-4-amine] | 210 |
| COc1ccc(Cn2nc(-c3ncc(OC)c(Nc4ccnc(C)c4)n3)c3ccccc32)cc1 [Example 34-4, 5-methoxy-2-[1-(4-methoxybenzyl)-1H-indazol-3-yl)-N-(2-methylpyridin-4-yl)pyrimidin-4-amine] | 120 |
| COc1cnc(-c2nn(Cc3c(F)ccc(OC)c3F)c3ccccc23)nc1N(Cc1c(F)ccc(OC)c1F)c1ccncc1 [Example 2-4-2, N-(2,6-difluoro-3-methoxybenzyl)-2-[1-(2,6-difluoro-3-methoxybenzyl)-1H-indazol-3-yl]-5-methoxy-N-(pyridin-4-yl)pyrimidin-4-amine] | 3500 |
| COc1cnc(-c2nn(Cc3c(Cl)cccc3Cl)c3ccccc23)nc1N(Cc1c(Cl)cccc1Cl)c1ccncc1 [Example 2-9-2, N-(2,6-dichlorobenzyl)-2-[1-(2,6-dichlorobenzyl)-1H-indazol-3-yl]-5-methoxy-N-(pyridin-4-yl)pyrimidin-4-amine] | 240 |
| COc1cnc(-c2nn(Cc3ccccc3Br)c3ccccc23)nc1N(Cc1ccccc1Br)c1ccncc1 [Example 2-21-2, N-(2-bromobenzyl)-2-[1-(2-bromobenzyl)-1H-indazol-3-yl]-5-methoxy-N-(pyridin-4-yl)pyrimidin-4-amine] | 20000 |

Test system: HeLa cells
Assay: Proliferation assay (HeLa cell line)
Assay type: cell-based
Details: Homo sapiens, 96 h, 4 days, crystal violet, read-out: Biological Assay 2: Proliferation assay (HeLa cell line) median IC50
Procedure: Cultivated tumor cells (cells were ordered from ATCC, except HeLa-MaTu and HeLa-MaTu-ADR, which were ordered from EPO-GmbH, Berlin) were plated at a density of 1000 to 5000 cells/well, depending on the growth rate of the respective cell line, in a 96-well multititer plate in 200 μL of their respective growth medium supplemented 10% fetal calf serum. After 24 hours, the cells of one plate (zero-point plate) were stained with crystal violet (see below), while the medium of the other plates was replaced by fresh culture medium (200 μl), to which the test substances were added in various concentrations (0 μM, as well as in the range of 0.001-10 μM; the final concentration of the solvent dimethyl sulfoxide was 0.5%). The cells were incubated for 4 days in the presence of test substances. Cell proliferation was determined by staining the cells with crystal violet: the cells were fixed by adding 20 μl/measuring point of an 11% glutaric aldehyde solution for 15 minutes at room temperature. After three washing cycles of the fixed cells with water, the plates were dried at room temperature. The cells were stained by adding 100 μl/measuring point of a 0.1% crystal violet solution (pH 3.0). After three washing cycles of the stained cells with water, the plates were dried at room temperature. The dye was dissolved by adding 100 μl/measuring point of a 10% acetic acid solution. […] The change of cell number, in percent, was calculated by normalization of the measured values to the aborbtion values of the zero-point plate (=0%) and the absorbtion of the untreated (0 μm) cells (=100%). The IC50 values were determined by means of a 4 parameter fit using the company's own software.

| SMILES | IC50 [nM] |
| --- | --- |
| CCOc1cc(F)c(Cn2nc(-c3ncc(OCC(=O)N4CC(F)(F)C4)c(Nc4ccncc4)n3)c3ccccc32)c(F)c1 [Example 4-15, 1-(3,3-difluoroazetidin-1-yl)-2-({2-[1-(4-ethoxy-2,6-difluorobenzyl)-1H-indazol-3-yl]-4-(pyridin-4-ylamino)pyrimidin-5-yl}oxy)ethanone] | 3900 |

Same assay, conditions: read-out: Biological Assay 2: Proliferation assay (HeLa cell line) median IC50, 4 days, crystal violet

| SMILES | IC50 [nM] |
| --- | --- |
| OC[C@@H](O)COc1cnc(-c2nn(Cc3ccccc3F)c3ccccc23)nc1Nc1ccncc1 [Example 15-6, (2R)-3-({2-[1-(2-fluorobenzyl)-1H-indazol-3-yl]-4-(pyridin-4-ylamino)pyrimidin-5-yl}oxy)propane-1,2-diol hydrochloride (1:1)] | ≥ 10000 |
